Assay results reported in ChEMBL document CHEMBL1201862, “PubChem BioAssay data set” (2004).
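Interpolation was linear, between the two tested concentrations surrounding the appropriate level; five concentrations were tested over 48 hours in 96-well plates. GI50 marks 50% less growth.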 Activity calls are given as the source filed them. Rule as the data show it: active = GI50 up to about 1.1 µM and inactive = higher.

Assays:
Experiment in all cases: NCI tumour cell line growth inhibition, 48 h
[1] = tested on: SK-MEL-5
[2] = tested on: MDA-MB-231
[3] = tested on: NCI/ADR-RES
[4] = tested on: RXF 393
[5] = tested on: MOLT-4
[6] = tested on: NCI-H23
[7] = tested on: U-251
[8] = tested on: MDA-MB-435
[9] = tested on: SF-268
[10] = tested on: OVCAR-3
[11] = tested on: A498
[12] = tested on: HOP-92
[13] = tested on: COLO 205
[14] = tested on: KM12
[15] = tested on: CAKI-1
[16] = tested on: OVCAR-8
[17] = tested on: UACC-62
[18] = tested on: T47D
[19] = tested on: MDA-N
[20] = tested on: EKVX

Row | SMILES | GI50 [1] | GI50 [2] | GI50 [3] | GI50 [4] | GI50 [5] | GI50 [6] | GI50 [7] | GI50 [8] | GI50 [9] | GI50 [10] | GI50 [11] | GI50 [12] | GI50 [13] | GI50 [14] | GI50 [15] | GI50 [16] | GI50 [17] | GI50 [18] | GI50 [19] | GI50 [20]
1 | CCCc1cn2c(/C=N/NC(=N)N)c(-c3ccc(Cl)c([N+](=O)[O-])c3)nc2s1 | 1.67 µM (inactive) | 1.86 µM (inactive) | 2.21 µM (inactive) | 1.68 µM (inactive) | 0.171 µM (active) | 1.74 µM (inactive) | 1.63 µM (inactive) | 1.75 µM (inactive) | 2.36 µM (inactive) | 1.55 µM (inactive) | 1.66 µM (inactive) | 1.68 µM (inactive) | 1.51 µM (inactive) | 1.33 µM (inactive) | 1.82 µM (inactive) | 1.82 µM (inactive) | 1.95 µM (inactive) | 1.42 µM (inactive) | – | –
2 | Cc1ccc(/C=C/C(=N/NC(=O)N/N=C(/C=C/c2ccc(C)cc2)C(C)C)C(C)C)cc1 | – | > 10 µM (inactive) | > 10 µM (inactive) | > 10 µM (inactive) | > 10 µM (inactive) | > 10 µM (inactive) | > 10 µM (inactive) | > 10 µM (inactive) | > 10 µM (inactive) | 3.93 µM (inactive) | – | > 10 µM (inactive) | > 10 µM (inactive) | > 10 µM (inactive) | > 10 µM (inactive) | > 10 µM (inactive) | – | – | > 10 µM (inactive) | > 10 µM (inactive)
3 | O=C(c1ccccc1F)c1c(NCc2ccccc2)c(=O)c1=O | > 100 µM (inactive) | > 100 µM (inactive) | > 100 µM (inactive) | > 100 µM (inactive) | > 100 µM (inactive) | > 100 µM (inactive) | > 100 µM (inactive) | > 100 µM (inactive) | > 100 µM (inactive) | > 100 µM (inactive) | > 100 µM (inactive) | > 100 µM (inactive) | > 100 µM (inactive) | > 100 µM (inactive) | > 100 µM (inactive) | > 100 µM (inactive) | > 100 µM (inactive) | – | > 100 µM (inactive) | > 100 µM (inactive)
4 | O=C(O)Cn1nnc2c(=O)[nH][nH]c(=O)c21 | > 100 µM (inactive) | > 100 µM (inactive) | > 100 µM (inactive) | – | > 10 µM (inactive) | > 100 µM (inactive) | > 100 µM (inactive) | > 100 µM (inactive) | – | > 100 µM (inactive) | – | > 100 µM (inactive) | > 100 µM (inactive) | > 100 µM (inactive) | > 100 µM (inactive) | > 100 µM (inactive) | – | – | > 100 µM (inactive) | > 100 µM (inactive)
5 | CCC[C@H](C)C[C@H](C)C[C@H](C)/C=C(\C)[C@@H](O)[C@@H](C)C(=O)CC | 18.9 µM (inactive) | 25.3 µM (inactive) | 17 µM (inactive) | 20.7 µM (inactive) | 21.4 µM (inactive) | 18.9 µM (inactive) | 22.4 µM (inactive) | 20.6 µM (inactive) | 20.9 µM (inactive) | 19.7 µM (inactive) | 25.5 µM (inactive) | 20.8 µM (inactive) | – | 20.2 µM (inactive) | 22.4 µM (inactive) | 20.3 µM (inactive) | 17.1 µM (inactive) | 23.6 µM (inactive) | – | 18.8 µM (inactive)
6 | CC1(C)OC1CC/C(=C/CBr)CBr (centres undefined) | 14.1 µM (inactive) | 15.7 µM (inactive) | 18.8 µM (inactive) | 17 µM (inactive) | 16.7 µM (inactive) | 15.5 µM (inactive) | 15.6 µM (inactive) | 17.8 µM (inactive) | 15.5 µM (inactive) | 18.7 µM (inactive) | 21.4 µM (inactive) | 15.4 µM (inactive) | 15.9 µM (inactive) | 16 µM (inactive) | 17.9 µM (inactive) | – | – | – | 15.3 µM (inactive) | 18.1 µM (inactive)
7 | Clc1ccc(Nc2nnc(CNc3ccc(-c4nnc(Nc5ccc(Cl)cc5)s4)cc3)s2)cc1 | 24.9 µM (inactive) | 25.8 µM (inactive) | 48.4 µM (inactive) | 35.8 µM (inactive) | 19 µM (inactive) | 39.3 µM (inactive) | 24.2 µM (inactive) | 28.1 µM (inactive) | 26.9 µM (inactive) | – | 28.9 µM (inactive) | 74.6 µM (inactive) | 20.2 µM (inactive) | 11 µM (inactive) | 42.6 µM (inactive) | – | 21.2 µM (inactive) | – | 18.2 µM (inactive) | 49.1 µM (inactive)
8 | O=C(/C=C(\C(=O)c1cccs1)c1cccs1)c1ccc(C(=O)/C=C(\C(=O)c2cccs2)c2cccs2)cc1 | > 100 µM (inactive) | > 100 µM (inactive) | > 100 µM (inactive) | > 100 µM (inactive) | > 100 µM (inactive) | – | > 100 µM (inactive) | > 100 µM (inactive) | > 100 µM (inactive) | – | – | – | > 100 µM (inactive) | > 100 µM (inactive) | > 100 µM (inactive) | > 100 µM (inactive) | > 100 µM (inactive) | > 100 µM (inactive) | – | > 100 µM (inactive)
9 | CN(C)C1(N(C)C)Oc2c(c(=O)n(C)c(=O)n2C)C(c2ccc(F)cc2)C1(F)F (centres undefined) | > 100 µM (inactive) | > 100 µM (inactive) | > 100 µM (inactive) | > 100 µM (inactive) | – | > 100 µM (inactive) | > 100 µM (inactive) | > 100 µM (inactive) | > 100 µM (inactive) | > 100 µM (inactive) | > 100 µM (inactive) | > 100 µM (inactive) | > 100 µM (inactive) | > 100 µM (inactive) | > 100 µM (inactive) | – | > 100 µM (inactive) | > 100 µM (inactive) | – | > 100 µM (inactive)
10 | Cc1ccc2c(c1)C(O)(c1ccccc1)CCS2 (centres undefined) | 29 µM (inactive) | 18 µM (inactive) | 34 µM (inactive) | 68.5 µM (inactive) | 15.3 µM (inactive) | 28.5 µM (inactive) | 21.7 µM (inactive) | 27.7 µM (inactive) | 38.4 µM (inactive) | 21.3 µM (inactive) | – | 17.7 µM (inactive) | 30.3 µM (inactive) | 22.6 µM (inactive) | 22 µM (inactive) | 36.7 µM (inactive) | 22.4 µM (inactive) | 28.2 µM (inactive) | – | 51.4 µM (inactive)
11 | O=C(N/C(=C/c1ccc(Cl)cc1Cl)c1nc2ccccc2s1)c1ccccc1 | 13.5 µM (inactive) | 10.3 µM (inactive) | 15.6 µM (inactive) | 31 µM (inactive) | 14.3 µM (inactive) | 11.8 µM (inactive) | 2.5 µM (inactive) | 15.6 µM (inactive) | 14 µM (inactive) | 7.78 µM (inactive) | – | 52.6 µM (inactive) | 18.3 µM (inactive) | 13.2 µM (inactive) | 15.8 µM (inactive) | 18.6 µM (inactive) | 16.6 µM (inactive) | 13.4 µM (inactive) | – | 18.5 µM (inactive)
12 | COc1cccc(NC(=O)c2c(SC)c(C#N)c(=O)n(N)c2N)c1 | 64.9 µM (inactive) | 95.7 µM (inactive) | 43 µM (inactive) | > 100 µM (inactive) | 41.8 µM (inactive) | – | 68.4 µM (inactive) | 97.5 µM (inactive) | 72.1 µM (inactive) | – | 79.3 µM (inactive) | 47.4 µM (inactive) | > 100 µM (inactive) | > 100 µM (inactive) | > 100 µM (inactive) | 47.9 µM (inactive) | 61.5 µM (inactive) | – | > 100 µM (inactive) | > 100 µM (inactive)
13 | CC(C)CC(NC(=O)C(CSc1ccc([N+](=O)[O-])cc1)Cc1ccccc1)C(=O)Nc1ccccc1 (centres undefined) | 64.3 µM (inactive) | > 100 µM (inactive) | 30.2 µM (inactive) | > 100 µM (inactive) | 59 µM (inactive) | > 100 µM (inactive) | > 100 µM (inactive) | > 100 µM (inactive) | – | > 100 µM (inactive) | > 100 µM (inactive) | > 100 µM (inactive) | > 100 µM (inactive) | 41.4 µM (inactive) | 72.1 µM (inactive) | 48.8 µM (inactive) | > 100 µM (inactive) | – | > 100 µM (inactive) | > 100 µM (inactive)
14 | CCCCCCCCCC[C@@H](O)[C@@H]1CC[C@@H]([C@@H]2CC[C@@H]([C@@H](O)CCCCCCCCCC[C@H](O)CC3=CC(C)OC3=O)O2)O1 (some centres undefined) | 0.0385 µM (active) | – | 0.256 µM (active) | 3.22 µM (inactive) | 1.77 µM (inactive) | – | 6.03 µM (inactive) | 1.09 µM (active) | 3.87 µM (inactive) | 3.94 µM (inactive) | 1.7 µM (inactive) | 2.26 µM (inactive) | 3.94 µM (inactive) | 2.16 µM (inactive) | 12.1 µM (inactive) | 2.65 µM (inactive) | 1.44 µM (inactive) | 2.63 µM (inactive) | – | 1.61 µM (inactive)
15 | CO[C@@H]1C[C@H]2N3CC[C@@]2(c2cc4c(cc2C3)OCO4)[C@H]2O[C@@H]12 | 0.157 µM (active) | > 100 µM (inactive) | > 100 µM (inactive) | > 100 µM (inactive) | > 100 µM (inactive) | > 100 µM (inactive) | > 100 µM (inactive) | > 100 µM (inactive) | > 100 µM (inactive) | > 100 µM (inactive) | > 100 µM (inactive) | > 100 µM (inactive) | 0.851 µM (active) | > 100 µM (inactive) | > 100 µM (inactive) | > 100 µM (inactive) | > 100 µM (inactive) | – | > 100 µM (inactive) | > 100 µM (inactive)
